US9938316B2, “Selective inhibitors of α2 isoform of Na,K-ATPase and use thereof for reduction of intra-ocular pressure and as cardiotonic agents” (priority 2013, dated 2018)
Several values for one entry are separate records, joined by “and”; a condition that tells them apart may be missing. Equal entries are not always repeated.

Columns and labels:
cornea of rabbits = test: Pachymetry: corneal thickness and local toxicity after topical cardiac glycosides; type: in vivo, New Zealand white rabbits; conditions: for Corneal thickness: 0.5 mM; for Corneal thickness (in words): over 4 hours, Digoxin 1 mM, DGlyN 0.5 mM, DMe 0.5 mM, ouabain 1 mM; for Corneal thickness (in words) / Redness or local irritation in conjunctiva or cornea: after 4AP; for Redness or local irritation in conjunctiva or cornea: topical
Description: Thus, in this study, no change in corneal thickness was detected (Table 3), indicative of lack of local toxic effects. […] Similar results were obtained with CG's applied after IB-MECA.
IOP (mm Hg) of rabbits was measured using a calibrated Pneumatonometer (Model 30, Reichert technologies, FIG. 1). A local anesthetic Oxybuprocaine HCl (0.4%, 25 μl) was applied to each cornea about a minute before IOP measurements. Two baseline IOP readings were taken before topical administration of the CG (or PBS as control) and after half an hour (Zero time). […] At zero time one drop of 4AP (40 mg/ml, 30 μl) or IB-MECA (1 μM, 30 μl) was administered to both eyes of each rabbit IOP measurements were made at different times as indicated in each experiment. In the experiments for which the IOP was elevated for several hours, 4AP was added every 1.5 hours or IB-MECA every 2 hours. […] Each experiment was repeated two or three times with similar results. In all cases the figures depict the average effect on IOP (i.e for four or six eyes) compared to control ±SEM. Where error bars are not seen in the figures, the errors are smaller than the symbols used. Significance of differences from the control was calculated by the unpaired Students t-test (p values), p values <0.05 were considered significant. Corneal thickness (μm) was measured using an ultrasonic pachymeter (Sonogage pachometer, Cleveland, USA), before and during the experiment with CG and 4AP treatments. The values represent averages of three independent measurements for each eye.

[1] = biological target: Na,K-ATPase α2β1 isoform complex (Homo sapiens, UniProt P50993); test: biochemical; type: biochemical; conditions: Ki ± S.E. α2, Table 2; α2β1
Description: (§1) Methods for transformation, culture of P. pastoris clones, protein expression of Na,K-ATPase human isoforms (α1β1, α2β1, α3β1), membrane preparation, solubilization of membranes in DDM, and purification on BD-Talon beads have been described in detail (6-9, 11, 25). In initial experiments the three purified isoform complexes (0.3-0.5 mg/ml) were eluted from the BD-Talon beads in a solution containing Imidazole 170 mM, NaCl 100 mM; Tricine.HCl 20 mM pH 7.4; C12E8, 0.1 mg/ml; SOPS 0.07 mg/ml cholesterol 0.01 mg/ml, glycerol 25%. In later experiments the isoforms complexes were reconstituted with purified FXYD1 on the BD-Talon beads together as described in detail in (10, 11) prior to elution of α1β1FXYD1, α2β1FXYD1 and α3β1FXYD1 complexes. The proteins were stored at −80° C. Protein concentration was determined with BCA (B9643 Sigma).
(§2) Inhibition of Na,K-ATPase activity of the detergent-soluble α1β1, α2β1, and α3β1 complexes by CG's was determined as described (6) using either the αβ or αβFXYD1 complexes. […] The K0.5K was estimated by varying K concentration in a medium containing a fixed total K+choline chloride of 60 mM, and constant NaCl of 140 mM. Curves were fitted to the Hill function v=Vmax*[S]^n/([S]^n+K^n), where S is the K concentration, n is the Hill coefficient and K^n is K0.5K. For comparison of different curves the ratio v/Vmax for each curve was calculated and replotted. In experiments to assess inhibition of Na,K-ATPase activity by cardiac glycosides of the present invention, the percent inhibition VCG/V0 was calculated and Ki values were obtained by fitting the data to the function VCG/V0=Ki/([CG]+Ki)+ c. Inhibition was estimated in 3-8 separate experiments and average Ki values ±SEM were calculated. Significance of differences between Kiα1 and Kiα2 was calculated by the unpaired Student's t-test (p values). […] P values <0.05 were considered significant.

[2] = test system: Na,K-ATPase α2β1 isoform complex; test: biochemical; type: biochemical, human; conditions: for Selectivity ratio Ki α1/α2 ± S.E.: Kiα1β1/Kiα2β1
Description: as §1, §2

[3] = test system: purified α2β1FXYD1 complexes of Na,K-ATPase; test: Dissociation of cardiac glycosides from the α2β1 isoform complex; conditions: α2β1 isoform complex, 37° C.
Description: Since the principal isoform in NPE cells is α2 and dissociation from the pump is expected to affect the duration of the effects on IOP, the dissociation rates of different cardiac glycosides from the purified α2β1 isoform were compared.
Purified α2β1FXYD1 complexes (0.3-0.5 mg/ml) were incubated for 30 minutes at 37° C. in a medium containing ATP, 1 mM; NaCl 100 mM; MgCl2, 4 mM Histidine.HCl 25 mM pH 7.4 without (Control) or with 1 μM of different cardiac glycosides. The enzyme solutions were then diluted 100-fold into a medium containing 100 mM NaCl, 5 mM KCl, 1 mM EDTA (Tris), 0.005 mg/ml C12E8, 0.01 mg/ml SOPS, and 0.001 mg/ml cholesterol and incubated at 37° C. for different lengths of time. Aliquots were removed at different times and Na,K-ATPase activity was measured in triplicate over 0.5 minutes (digoxigenin) or 2 minutes (other cardiac glycosides) in the standard activity medium containing 200 μM ATP. The activity of test samples was divided by the activity of the control samples and the time-course for reversal of inhibition was analyzed by fitting the data to the function vt=v∞e^−kt+c. Normalized curves for comparison of different experiments (e.g. as in FIG. 9) were obtained by subtracting the constant value c from each value of the activity and re-fitting the ratio vt/v∞=1−e^−kt.

[4] = biological target: Na,K-ATPase α1β1 isoform complex (Homo sapiens, UniProt P05023); test: biochemical; conditions: Ki ± S.E. α1, Table 2; α1β1
Description: as §1, §2

| Compound | Corneal thickness (cornea of rabbits; left eye, 0 h) | Corneal thickness (cornea of rabbits; left eye, 2 h) | Corneal thickness (cornea of rabbits; left eye, 4 h) | Corneal thickness (cornea of rabbits; right eye, 0 h) | Corneal thickness (cornea of rabbits; right eye, 2 h) | Corneal thickness (cornea of rabbits; right eye, 4 h) | Corneal thickness (in words) (cornea of rabbits) | Redness or local irritation in conjunctiva or cornea (cornea of rabbits) | Ki [1] | Selectivity ratio Ki α1/α2 ± S.E. [2] | k ± SEM (rate of dissociation) [3] | Ki [4] | Selectivity α1β1/α2/β1 ([2]; ratio of Ki, Table 6) |
| --- | --- | --- | --- | --- | --- | --- | --- | --- | --- | --- | --- | --- | --- |
| CC1CN(CC(N)=O)CCC(OC2C(O)CC(OC3C(O)CC(OC4CCC5(C)C(CCC6C5CC(O)C5(C)C(C7=CC(=O)OC7)CCC65O)C4)OC3C)OC2C)O1 (stereo not shown) [DGlyN] | 498 microns | 462 microns | 455 microns | 496 microns | 476 microns | 454 microns | not significantly affected | neither redness nor local irritation were observed | 20.4 ± 1 nM | 7.45±0.46 and 7.45 | 0.009 ± 0.001, 3 min^−1 | 152 ± 5.5 nM |  |
| CC1CN(C)CCC(OC2C(O)CC(OC3C(O)CC(OC4CCC5(C)C(CCC6C5CC(O)C5(C)C(C7=CC(=O)OC7)CCC65O)C4)OC3C)OC2C)O1 (stereo not shown) [DMe] | 465 microns | 440 microns | 453 microns | 507 microns | 476 microns | 498 microns | not significantly affected | neither redness nor local irritation were observed | 15.6 ± 2.3 nM | 6.47±0.71 | 0.0067 ± 0.004, 3 min^−1 | 101 ± 4.4 nM | 6.7 |
